From ChEMBL document CHEMBL3994622, “Design and synthesis of new RAF kinase-inhibiting antiproliferative quinoline derivatives. Part 2: Diarylurea derivatives” (Eur J Med Chem, 2017)

Legend:
Type in all cases: functional
RPMI-8226 = test: Growth inhibition of human RPMI8226 cells assessed as cell growth at 10 uM incubated for 48 hrs by sulforhodamine B assay relative to control; conditions: RPMI-8226, 48 h, read-out: Activity
A549 = test: Growth inhibition of human A549/ATCC cells assessed as cell growth at 10 uM incubated for 48 hrs by sulforhodamine B assay relative to control; conditions: A549, 48 h, read-out: Activity
HOP-62 = test: Growth inhibition of human HOP62 cells assessed as cell growth at 10 uM incubated for 48 hrs by sulforhodamine B assay relative to control; conditions: HOP-62, 48 h, read-out: Activity
NCI-H23 = test: Growth inhibition of human NCI-H23 cells assessed as cell growth at 10 uM incubated for 48 hrs by sulforhodamine B assay relative to control; conditions: NCI-H23, 48 h, read-out: Activity
NCI-H460 = test: Growth inhibition of human NCI-H460 cells assessed as cell growth at 10 uM incubated for 48 hrs by sulforhodamine B assay relative to control; conditions: NCI-H460, 48 h, read-out: Activity
NCI-H522 = test: Growth inhibition of human NCI-H522 cells assessed as cell growth at 10 uM incubated for 48 hrs by sulforhodamine B assay relative to control; conditions: NCI-H522, 48 h, read-out: Activity
COLO 205 = test: Growth inhibition of human COLO205 cells assessed as cell growth at 10 uM incubated for 48 hrs by sulforhodamine B assay relative to control; conditions: COLO 205, 48 h, read-out: Activity
HCC 2998 = test: Growth inhibition of human HCC2998 cells assessed as cell growth at 10 uM incubated for 48 hrs by sulforhodamine B assay relative to control; conditions: HCC 2998, 48 h, read-out: Activity
HCT-116 = test: Growth inhibition of human HCT116 cells assessed as cell growth at 10 uM incubated for 48 hrs by sulforhodamine B assay relative to control; conditions: HCT-116, 48 h, read-out: Activity
HCT-15 = test: Growth inhibition of human HCT15 cells assessed as cell growth at 10 uM incubated for 48 hrs by sulforhodamine B assay relative to control; conditions: HCT-15, 48 h, read-out: Activity
KM12 = test: Growth inhibition of human KM12 cells assessed as cell growth at 10 uM incubated for 48 hrs by sulforhodamine B assay relative to control; conditions: KM12, 48 h, read-out: Activity
SF-268 = test: Growth inhibition of human SF268 cells assessed as cell growth at 10 uM incubated for 48 hrs by sulforhodamine B assay relative to control; conditions: SF-268, 48 h, read-out: Activity
SF-295 = test: Growth inhibition of human SF295 cells assessed as cell growth at 10 uM incubated for 48 hrs by sulforhodamine B assay relative to control; conditions: SF-295, 48 h, read-out: Activity
SNB-75 = test: Growth inhibition of human SNB75 cells assessed as cell growth at 10 uM incubated for 48 hrs by sulforhodamine B assay relative to control; conditions: SNB-75, 48 h, read-out: Activity
U-251 = test: Growth inhibition of human U251 cells assessed as cell growth at 10 uM incubated for 48 hrs by sulforhodamine B assay relative to control; conditions: U-251, 48 h, read-out: Activity
Malme-3M = test: Growth inhibition of human MALME-3M cells assessed as cell growth at 10 uM incubated for 48 hrs by sulforhodamine B assay relative to control; conditions: read-out: Activity
MDA-MB-435 = test: Growth inhibition of human MDA-MB-435 cells assessed as cell growth at 10 uM incubated for 48 hrs by sulforhodamine B assay relative to control; conditions: MDA-MB-435, 48 h, read-out: Activity
SK-MEL-5 = test: Growth inhibition of human SK-MEL-5 cells assessed as cell growth at 10 uM incubated for 48 hrs by sulforhodamine B assay relative to control; conditions: SK-MEL-5, 48 h, read-out: Activity
UACC-257 = test: Growth inhibition of human UACC257 cells assessed as cell growth at 10 uM incubated for 48 hrs by sulforhodamine B assay relative to control; conditions: UACC-257, 48 h, read-out: Activity
UACC-62 = test: Growth inhibition of human UACC62 cells assessed as cell growth at 10 uM incubated for 48 hrs by sulforhodamine B assay relative to control; conditions: UACC-62, 48 h, read-out: Activity
OVCAR-3 = test: Growth inhibition of human OVCAR3 cells assessed as cell growth at 10 uM incubated for 48 hrs by sulforhodamine B assay relative to control; conditions: OVCAR-3, 48 h, read-out: Activity
OVCAR-4 = test: Growth inhibition of human OVCAR4 cells assessed as cell growth at 10 uM incubated for 48 hrs by sulforhodamine B assay relative to control; conditions: OVCAR-4, 48 h, read-out: Activity
NCI/ADR-RES = test: Growth inhibition of human NCI/ADR-RES cells assessed as cell growth at 10 uM incubated for 48 hrs by sulforhodamine B assay relative to control; conditions: read-out: Activity
A498 = test: Growth inhibition of human A498 cells assessed as cell growth at 10 uM incubated for 48 hrs by sulforhodamine B assay relative to control; conditions: A498, 48 h, read-out: Activity
CAKI-1 = test: Growth inhibition of human Caki1 cells assessed as cell growth at 10 uM incubated for 48 hrs by sulforhodamine B assay relative to control; conditions: CAKI-1, 48 h, read-out: Activity
RXF 393 = test: Growth inhibition of human RXF393 cells assessed as cell growth at 10 uM incubated for 48 hrs by sulforhodamine B assay relative to control; conditions: RXF 393, 48 h, read-out: Activity
MDA-MB-231 = test: Growth inhibition of human MDA-MB-231 cells assessed as cell growth at 10 uM incubated for 48 hrs by sulforhodamine B assay relative to control; conditions: MDA-MB-231, 48 h, read-out: Activity
BT-549 = test: Growth inhibition of human BT549 cells assessed as cell growth at 10 uM incubated for 48 hrs by sulforhodamine B assay relative to control; conditions: BT-549, 48 h, read-out: Activity
T47D = test: Growth inhibition of human T47D cells assessed as cell growth at 10 uM incubated for 48 hrs by sulforhodamine B assay relative to control; conditions: read-out: Activity
MDA-MB-468 = test: Growth inhibition of human MDA-MB-468 cells assessed as cell growth at 10 uM incubated for 48 hrs by sulforhodamine B assay relative to control; conditions: MDA-MB-468, 48 h, read-out: Activity
HL-60(TB) = test: Growth inhibition of human HL-60(TB) cells assessed as cell growth at 10 uM incubated for 48 hrs by sulforhodamine B assay relative to control; conditions: HL-60, 48 h, read-out: Activity
MOLT-4 = test: Growth inhibition of human MOLT4 cells assessed as cell growth at 10 uM incubated for 48 hrs by sulforhodamine B assay relative to control; conditions: MOLT-4, 48 h, read-out: Activity

Row | SMILES | growth at 10 µM (RPMI-8226) [%] | growth at 10 µM (A549) [%] | growth at 10 µM (HOP-62) [%] | growth at 10 µM (NCI-H23) [%] | growth at 10 µM (NCI-H460) [%] | growth at 10 µM (NCI-H522) [%] | growth at 10 µM (COLO 205) [%] | growth at 10 µM (HCC 2998) [%] | growth at 10 µM (HCT-116) [%] | growth at 10 µM (HCT-15) [%] | growth at 10 µM (KM12) [%] | growth at 10 µM (SF-268) [%] | growth at 10 µM (SF-295) [%] | growth at 10 µM (SNB-75) [%] | growth at 10 µM (U-251) [%] | growth at 10 µM (Malme-3M) [%] | growth at 10 µM (MDA-MB-435) [%] | growth at 10 µM (SK-MEL-5) [%] | growth at 10 µM (UACC-257) [%] | growth at 10 µM (UACC-62) [%] | other results
1 | COc1cc2cc(Oc3ccc(NC(=O)Nc4cc(C(F)(F)F)cc(C(F)(F)F)c4)cc3)c(C)nc2cc1OC | 1.15 | 5.93 | -54.1 | 2.28 | 7 | -33.4 | -81.2 | 21.3 | 3.73 | 2.75 | 5.61 | 15.3 | -59.2 | 9.73 | -26.5 | -3.13 | -2.55 | -58.5 | -4.68 | -34.6 | growth at 10 µM (OVCAR-3): 1.71%; growth at 10 µM (OVCAR-4): 27.9%; growth at 10 µM (NCI/ADR-RES): 7.03%; growth at 10 µM (A498): -11.5%; growth at 10 µM (CAKI-1): 6.4%; growth at 10 µM (RXF 393): -24.5%; growth at 10 µM (MDA-MB-231): -36.1%; growth at 10 µM (BT-549): 1.44%; growth at 10 µM (T47D): 7.52%; growth at 10 µM (MDA-MB-468): -8.12%
2 | Cc1nc2cc(O)c(O)cc2cc1Oc1ccc(NC(=O)Nc2ccc(Cl)c(Cl)c2)cc1 | 75.7 | 50.5 | 35.7 | 62.8 | 62.1 | 1.87 | 34.7 | 93.4 | 44.6 | 37.2 | 74.7 | 65.5 | 95.9 | 75.8 | 41.4 | 85.2 | 54.2 | -42.2 | 88.5 | 84.5 | growth at 10 µM (HL-60(TB)): 96.8%; growth at 10 µM (MOLT-4): 12.6%; growth at 10 µM (OVCAR-3): 67.9%; growth at 10 µM (OVCAR-4): 67.7%; growth at 10 µM (NCI/ADR-RES): 59%; growth at 10 µM (A498): 118%; growth at 10 µM (CAKI-1): 27.3%; growth at 10 µM (RXF 393): 20.4%; growth at 10 µM (MDA-MB-231): 45%; growth at 10 µM (BT-549): 82.2%; growth at 10 µM (T47D): 62.2%
3 | COc1cc2cc(Oc3ccc(NC(=O)Nc4ccc(C)cc4)cc3)c(C)nc2cc1OC | 101 | 102 | 66.9 | 95.5 | 108 | 69.9 | 111 | 104 | 107 | 103 | 104 | 80.2 | 107 | 56.3 | 99.9 | 94.6 | 107 | 100 | 112 | 99.3 | growth at 10 µM (HL-60(TB)): 93%; growth at 10 µM (MOLT-4): 82.4%; growth at 10 µM (OVCAR-3): 113%; growth at 10 µM (NCI/ADR-RES): 107%; growth at 10 µM (A498): 116%; growth at 10 µM (CAKI-1): 98.2%; growth at 10 µM (RXF 393): 82.1%; growth at 10 µM (MDA-MB-231): 85.6%; growth at 10 µM (BT-549): 130%; growth at 10 µM (T47D): 101%; growth at 10 µM (MDA-MB-468): 97.1%
4 | COc1cc2cc(Sc3ccc(NC(=O)Nc4ccc(Cl)c(Cl)c4)cc3)c(C)nc2cc1OC | 54.5 | 59.5 | 92.6 | 84.7 | 74.6 | 66 | 87.8 | 101 | 67.9 | 75.9 | 74.5 | 72.6 | 56.5 | 86.4 | 70 | 89.9 | 76.7 | 71 | 90 | 69.5 | growth at 10 µM (HL-60(TB)): 77.3%; growth at 10 µM (MOLT-4): 38.1%; growth at 10 µM (OVCAR-3): 73%; growth at 10 µM (OVCAR-4): 78.2%; growth at 10 µM (NCI/ADR-RES): 86.2%; growth at 10 µM (A498): 73%; growth at 10 µM (CAKI-1): 64.5%; growth at 10 µM (RXF 393): 84.4%; growth at 10 µM (MDA-MB-231): 87.9%; growth at 10 µM (BT-549): 77.8%; growth at 10 µM (MDA-MB-468): 55.1%
